Test results from PMC10762035, “Molecular basis of human trace amine-associated receptor 1 activation” (Nature Communications, 2024).
Numbering of substitutions follows the chain as printed. Several values for one entry are separate records, joined by “and”; a condition that tells them apart may be missing. Equal entries are not always repeated.

How the values were obtained:
Type in all cases: cell-based
hTA1 T271A = target: T1, hTA1 T271A (Homo sapiens, UniProt Q96RJ0, T271A); experiment: GloSensor cAMP accumulation assay, T271A mutant
T1 construct: expressed in transfected cells; host or cells: HEK293T
T1 sequence (Q96RJ0 1-339 T271A): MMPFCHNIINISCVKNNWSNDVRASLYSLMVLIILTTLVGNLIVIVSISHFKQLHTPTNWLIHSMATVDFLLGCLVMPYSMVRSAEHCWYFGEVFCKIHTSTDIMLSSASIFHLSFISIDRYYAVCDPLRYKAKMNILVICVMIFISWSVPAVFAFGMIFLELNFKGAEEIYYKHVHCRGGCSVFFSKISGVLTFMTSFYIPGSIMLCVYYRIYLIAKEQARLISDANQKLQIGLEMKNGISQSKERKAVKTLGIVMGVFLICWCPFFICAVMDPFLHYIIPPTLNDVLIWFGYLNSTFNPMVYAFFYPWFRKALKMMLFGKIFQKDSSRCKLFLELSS

hTA1 C88S = target: T2, hTA1 C88S (Homo sapiens, UniProt Q96RJ0, C88S); experiment: GloSensor cAMP accumulation assay, C88S mutant; conditions: C88S
T2 construct: expressed in transfected cells; host or cells: HEK293T
T2 sequence (Q96RJ0 1-339 C88S): T1 sequence (Q96RJ0 1-339 T271A) with C88S, A271T

hTA1 I290Y = target: T3, hTA1 I290Y (Homo sapiens, UniProt Q96RJ0, I290Y); experiment: GloSensor cAMP accumulation assay, I290Y mutant; conditions: for Normalized Luminescence Counts for Concentration Response Curves: I120Y, log[Agonist], single replicates; for cAMP accumulation response, normalized (concentration-response source data, single replicate values): hTA1 I290Y (N=3), log[Compound];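 on cAMP accumulation response, normalized (concentration-response source data, single replicate values): normalized to the maximum response of β-PEA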
T3 construct: expressed in transfected cells; host or cells: HEK293T
T3 sequence (Q96RJ0 1-339 I290Y): T1 sequence (Q96RJ0 1-339 T271A) with A271T, I290Y

NCCc1ccccc1 [β-PEA, β-phenethylamine]
reduction in potency vs wild type (hTA1 T271A; T271A): about 10 fold | ΔpEC50 values (each mutant value - WT average), Mean (hTA1 T271A; T271A mutant minus WT average, Figure 5B): -1.015 and -0.8638 | pEC50 values, Mean (hTA1 T271A; T271A mutant, Figure 5B, each row one independent experiment (3 replicates)): 6.079 and 6.23 | Emax values, Mean (hTA1 T271A; T271A mutant, Figure 5B, β-PEA = 100, each row one independent experiment (3 replicates)): 100 | Span ± SEM (Emax normalized to β-PEA) (hTA1 T271A; T271A, n=2): 100 ± 2.03 | pEC50 ± SEM (hTA1 T271A; T271A, n=2): 6.15 ± 0.03 | EC50 (hTA1 T271A; T271A, n=2, read-out: EC50): 701 nM | Emax values (hTA1 C88S; Mean of fit per experiment): 100 | pEC50 values (hTA1 C88S; Mean of fit per experiment): 7.013 and 7.137 | Span ± SEM (Emax normalized to β-PEA) (hTA1 C88S; n=2): 100 ± 2.93 | pEC50 ± SEM (hTA1 C88S; n=2): 7.08 ± 0.06 | EC50 (hTA1 C88S; n=2, read-out: EC50): 84.1 nM | Normalized Luminescence Counts for Concentration Response Curves (hTA1 I290Y; M -5): 106.77 and 91.3809 and 125.546 and 108.456 and 111.021 and 107.357 and 101.946 and 94.0497 and 113.225 | Normalized Luminescence Counts for Concentration Response Curves (hTA1 I290Y; M -6): 87.3796 and 52.2914 and 77.8381 and 75.4765 and 68.8807 and 65.9492 and 71.4902 and 68.1063 and 59.0825 | Normalized Luminescence Counts for Concentration Response Curves (hTA1 I290Y; M -7): 31.0537 and 19.6655 and 31.3615 and 25.6411 and 22.3431 and 26.3739 and 25.2433 and 15.0915 and 12.8355 | Normalized Luminescence Counts for Concentration Response Curves (hTA1 I290Y; M -8): 5.199 (2×) and 2.121 and 24.1753 and 3.655 and 1.823 and 1.556 and -1.828 and -0.7002 | Normalized Luminescence Counts for Concentration Response Curves (hTA1 I290Y; M -9): -0.341 (2×) and -2.496 and 2.189 and -2.575 and -4.773 and 0.4278 and -1.828 and -2.956 | Normalized Luminescence Counts for Concentration Response Curves (hTA1 I290Y; M -10): -0.0332 (2×) and -1.88 and -5.873 and -4.407 and -4.773 and 2.684 and -1.828 and -0.7002 | Normalized Luminescence Counts for Concentration Response Curves (hTA1 I290Y; M -11): 0.5824 (2×) and -1.264 and -5.506 and -5.14 and -3.674 and -1.828 (3×) | Normalized Luminescence Counts for Concentration Response Curves (hTA1 I290Y; M -12): 1.506 and -1.88 and -0.341 and -3.674 and -4.773 and 8.4185 and 1.556 (2×) and 2.684 | Span ± SEM (Emax normalized to β-PEA) (hTA1 I290Y; I290Y): 100 ± 3.64 | pEC50 ± SEM (hTA1 I290Y; I290Y): 6.43 ± 0.07 | ΔEmax values (each mutant value - WT average) (hTA1 I290Y; I290Y minus WT average): 0 | ΔpEC50 values (each mutant value - WT average), Mean (hTA1 I290Y; I290Y minus WT average): -0.6326 and -0.5624 and -0.7969 | EC50 (hTA1 I290Y; I290Y, read-out: EC50): 372 nM | pEC50 values, Mean (hTA1 I290Y; I290Y, single experiments (3 replicates each)): 6.461 and 6.531 and 6.297 | Emax values, Mean (hTA1 I290Y; I290Y, single experiments (3 replicates each), β-PEA = 100): 100 | cAMP accumulation response, normalized (concentration-response source data, single replicate values) (hTA1 I290Y; M = -5): 106.77 and 91.3809 and 125.546 and 108.456 and 111.021 and 107.357 and 101.946 and 94.0497 and 113.225 | cAMP accumulation response, normalized (concentration-response source data, single replicate values) (hTA1 I290Y; M = -5.522): 77.8381 and 72.2978 and 82.1471 and 73.6443 and 85.0039 and 85.3703 and 81.642 and 86.1539 and 57.9545 | cAMP accumulation response, normalized (concentration-response source data, single replicate values) (hTA1 I290Y; M = -6): 87.3796 and 52.2914 and 77.8381 and 75.4765 and 68.8807 and 65.9492 and 71.4902 and 68.1063 and 59.0825 | cAMP accumulation response, normalized (concentration-response source data, single replicate values) (hTA1 I290Y; M = -6.522): 54.4459 and 35.6706 and 50.4446 and 60.0862 and 56.7882 and 48.7266 and 47.8027 and 37.651 (2×) | cAMP accumulation response, normalized (concentration-response source data, single replicate values) (hTA1 I290Y; M = -7): 31.0537 and 19.6655 and 31.3615 and 25.6411 and 22.3431 and 26.3739 and 25.2433 and 15.0915 and 12.8355 | cAMP accumulation response, normalized (concentration-response source data, single replicate values) (hTA1 I290Y; M = -7.522): 12.5863 and 7.662 and 9.508 and 11.7164 and 13.1822 and 20.5109 and 7.196 and 4.9397 and 3.812 | cAMP accumulation response, normalized (concentration-response source data, single replicate values) (hTA1 I290Y; M = -8): 5.199 (2×) and 2.121 and 24.1753 and 3.655 and 1.823 and 1.556 and -1.828 and -0.7002 | cAMP accumulation response, normalized (concentration-response source data, single replicate values) (hTA1 I290Y; M = -8.522): 0.8902 and -1.264 and -0.0332 and -1.109 and -1.842 and -4.04 and 0.4278 and -2.956 and -0.7002 | cAMP accumulation response, normalized (concentration-response source data, single replicate values) (hTA1 I290Y; M = -9): -0.341 (2×) and -2.496 and 2.189 and -2.575 and -4.773 and 0.4278 and -1.828 and -2.956
